Reference: paper PMC4862498, “PI4 Kinase Is a Prophylactic but Not Radical Curative Target in Plasmodium vivax-Type Malaria Parasites” (Antimicrobial Agents and Chemotherapy, 2016)
Several values for one entry are separate records, joined by “and”; a condition that tells them apart may be missing. Equal values may be shown once. Entries after “also recorded” stand apart in the source; their conditions may differ.

Legend:
[1] = test system: P. cynomolgi sporozoite-infected rhesus macaques (hypnozoites, relapse); assay: Radical cure in P. cynomolgi sporozoite-infected rhesus macaques; assay type: in vivo, Plasmodium cynomolgi; conditions: group PQ-RC
Procedure: Sporozoites were harvested from P. cynomolgi-infected mosquitoes, washed with phosphate-buffered saline (PBS), and diluted to 100,000 sporozoites (spz)/ml in PBS. One-milliliter aliquots of sporozoites were prepared and injected into monkeys via intravenous (i.v.) injection.
(§1) Monkeys were treated according to the schedule shown in Table 1 (stratification of treatment groups is given in the supplemental material). During treatment, monkeys were weighed daily and received the compound via gavage, followed by gastric feeding (weight change during treatment is shown in Table S6 in the supplemental material). Monkeys in the prophylaxis groups (groups 691-proph and 599-proph) were treated ∼20 min after the i.v. sporozoite injection. The other monkeys were treated when all the monkeys in the experiment (except those in the prophylaxis group) were blood-stage patent (at day 11 p.i.). To kill the blood-stage parasites, all monkeys received a 5-day treatment of 7.5 mg/kg of body weight of chloroquine (CQ) (intramuscular [i.m.] injection), during compound dosing. KDU691 was formulated in 0.5% methylcellulose and 0.5% Tween 80 in water. LMV599 was formulated as a solid dispersion in a solution containing 5.6% (wt/wt) Tween 80–44.4% hydroxypropyl methylcellulose (HPMC) E3–38.9% Soluplus–11.1% vitamin E D-alphatocopheryl polyethylene glycol 1000 succinate (TPGS).
Parasitemia was closely monitored by thin-film analysis. Animals were trained to present for thigh pricks, which was followed by a reward. Thin-film slides were stained with 20% Giemsa stain, and at least 50 fields (±20,000 erythrocytes [RBCs]) were analyzed with a bright-field microscope (×1,200 magnification). As soon as all monkeys other than the prophylactic treatment groups were blood-stage positive, treatment was started as indicated above (Table 1). After the last day of compound dosing, the absence of blood-stage parasites was confirmed by thin smears. From day 23 p.i., monkeys were monitored daily for relapses. The KDU691 radical-cure (group 691-RC) treatment and control groups were monitored until the first relapse. The LMV599 control (group 599-C), radical-cure (group 599-RC), and PQ radical-cure (group PQ-RC) treatment groups were monitored until the second relapse or until day 100 p.i. (whichever came first). At the end of the study, monkeys that had relapsed received a 14-day primaquine treatment, with a final check 2 weeks after the last primaquine dose.
P. cynomolgi sporozoite production
A monkey was infected with […] P. cynomolgi M strain blood stage parasites, thawed from a first passage stock (i.e. blood stage parasites from a monkey infected with P. cynomolgi M strain sporozoites). For each batch of sporozoites needed, a single monkey was infected with P. cynomolgi blood stage parasites.
At day 11 and 12 post infection 9 mL infected blood was collected into a Lithium-heparinised tube. The blood was kept at 38°C and fed approximately 500 three to five days old female Anopheles stephensi mosquitoes Sind-Kasur strain Nijmegen (Nijmegen University Medical Centre St Radboud, Department of Medical Microbiology) using a glass feeder system as described by Ponnudurai et al.. After the second bleed, the monkey was cured by three daily intramuscular injections of 7.5 mg/kg chloroquine, monitored for parasite clearance 24 days after chloroquine treatment and returned to colony.
Mosquitoes were kept in climate chambers at 25 °C and 80% humidity and were fed 5% D -glucose on cotton pads daily. Seven days after feeding on the infected rhesus blood, oocyst numbers were determined in midguts of ten individuals, using 1% mercurochrome stain. Mosquitoes were given a second (uninfected) blood meal immediately afterwards to promote sporozoite maturation and invasion of the salivary glands. Sporozoites were isolated from the P. cynomolgi infected mosquitoes around day16 after the infected blood meal.
In vivo monkey infection and treatment procedures […]

[2] = Clinical chemistry, hematology, weight and clinical observation of treated monkeys; assay type: in vivo, rhesus macaques (Macaca mulatta)
Procedure: as §1
Blood samples were collected for clinical evaluation and pharmacokinetic (PK) analysis (see Table S2 in the supplemental material).
When the first relapse was observed, monkeys of the KDU691 experiment were radically cured with primaquine (PQ)/CQ (oral administration of 1.8 mg/kg PQ for 14 days together with i.m. administration of 7.5 mg/kg CQ for the first five days of PQ treatment) to cure both blood stage and liver stage parasites, […]
The monkeys of the LMV599/PQ experiment were cured with a five day CQ treatment (7.5 mg/kg, i.m. administration) at the first relapse and were monitored until the second relapse after which they were cured with CQ (7.5 mg/kg, intramuscular (i.m.) for five days) plus PQ (1.8 mg/kg for 14 days).
Table S2: PK and clinical blood sampling schedule in monkeys.
Groups are named 691 for KDU691 and 599 for LMV599 treatment groups, followed by -C for control group (no compound), -proph for prophylactic treatment (treated immediately after infection), and -RC for radical cure treatment (treated when blood stage positive). […]
the face and chest areas were very yellow. Therefore the 691-RC group (treated from d11 to d15 pi) was monitored by daily clinical chemistry analysis during dosing to be compared with untreated 691-C. […]
sampling of the single dose prophylaxis group at day 0, 1, 7 and 100. The lack of aberrant clinical […]
as radical cure compound, during which also clinical sampling was performed daily. a: only clinical chemistry samples were taken. *: t = 24 sample was taken only on the 1st day of dosing.
Group name Clin. chem PK sampling PK time points
Hematology (h post dosing)
691-proph 1st and 5th day of dosing t = 0, 1, 4, 6 and 24*
691-RC Dailya 1st and 5th day of dosing t = 0, 1, 4, 6 and 24* […]
599-RC Daily 1st and 4th day of dosing t = 0, 1, 2, 4 and 24
Clinical chemistry and hematology
For the clinical analysis serum from 1 mL of clotted blood was analysed using the Cobas Integra 400 plus fully automated chemistry analyser. The following clinical parameters were determined: Alkaline phosphatase; Alanine Aminotransferase; Albumin: Aspartate aminotransfeasr; Bilirubin; Calcium; Cholesterol; Creatine kinase; Creatinine; C-reactive protein: Iron; Phosphate; Gamma-glutamyl transpeptidase; Glucose; Hemoglobin; Potassium; Lactate dehydrogenase; Sodium; Total protein; Urea Haematological parameters were determined from 1 mL EDTA-blood with a Sysmex XT-2000iV automated system. The following hematological parameters were determined: Basophilic granulocytes; Eosinophilic granulocytes; Erythrocytes; Hematocrit; Leucocytes; Leucocyte differentiation; Lymphocytes; Mean corpusculair hemoglobin; Mean corpusculair hemoglobin concentration; Mean corpusculair volume; Neutrophilic granulocytes; Red cell distribution width; Thrombocytes […]
Liver tissue samples were excised, dipped in PBS, gently blotted with absorbent paper, dried, weighed and stored at -20 °C until further analysis. […]

[3] = test system: P. cynomolgi hypnozoites in primary rhesus hepatocytes; set-up: method as in PMID 24366744; conditions: P. cynomolgi in vitro liver-stage assay; read-out: IC50 against hypnozoites; cited from earlier work
[4] = test system: P. cynomolgi developing EEFs (liver schizonts) in primary rhesus hepatocytes; set-up: method as in PMID 24366744; conditions: P. cynomolgi in vitro liver-stage assay; read-out: IC50 against developing EEFs; cited from earlier work
[5] = group PQ-RC, 1.8 mg/kg, % of weight at d0

COc1cc(NC(C)CCCN)c2ncccc2c1 (stereo not drawn) [PQ, primaquine]
Day p.i. to first relapse ([1]; 1.8 mg/kg oral for 5 days from day 11 p.i. plus CQ, individual monkeys, ND = not detected up to day 100 p.i., 1.8 mg/kg): 47 day p.i. and 68 day p.i.
animals radically cured ([1]; 1.8 mg/kg oral for 5 days, monitored up to 100 days p.i., 1.8 mg/kg): two out of four; also recorded: two were completely cured
Day p.i. to second relapse ([1]; 1.8 mg/kg oral for 5 days, individual monkeys, ND = not detected up to day 100 p.i.): 100 day p.i.
day p.i. to first relapse, mean ± SD of the relapsing animals ([1]; 1.8 mg/kg oral for 5 days, only two of the four animals relapsed, delay P = 0.000237): 57.5 ± 14.8 day p.i.
Day p.i. to primary parasitemia ([1]; individual monkeys, baseline, before dosing started): 9 day p.i. and 10 day p.i. and 11 day p.i.
Weight change d1 [2, 5]: -0.8%
Weight change d2 [2, 5]: -1.2%
Weight change d3 [2, 5]: -2.6%
Weight change d4 [2, 5]: -2.9%
mean weight loss ([2]; primaquine treatment, 1.8 mg/kg for 5 days, control 2.7%): 2.9%
IC50 [3]: 840 nM
IC50 [4]: 370 nM
